Tests used:
[1] = test system: Cherry tomato (breed; Regina); assay: Evaluation test for relief effects of high temperature injury on cherry tomato; assay type: in vivo; details: 30% water dispersible granule at plant foot at intervals of seven days
Experimental: Cherry tomato (breed; Regina, 5 reprications) grown in a greenhouse was prepared.
On August 24 at the first inflorescence anthesis, 0.15% of 4-chlorophenoxyacetic acid was sprayed, and a water dispersible granule of 30% ascorbyl palmitate in an amount described in Table 4 was further applied at the plant foot at intervals of seven days. All fruits were harvested on September 28, and the color of a fruit (classified into red and green), the weight of a fruit, and the number of fruits were investigated to calculate the weight per fruit and the percentage of red fruits (%).

[2] = test system: Wheat (breed, Norin No. 61); assay: Test for green color maintenance effects (relief of high temperature injury) on wheat; assay type: in vivo; details: appl. amount 1.5 g/m^2 at plant foot, 4 times at intervals of seven days, field
From the text: Wheat (breed, Norin No. 61, 15 plants/m^2/region, 2 reprications) grown in the field was used. A water dispersible granule of 30% ascorbyl palmitate in an amount described in Table 11 was applied to the plant foot 4 times at intervals of seven days from the next day of the ear emergence day in August. The leaf color index of top 4 to 5 leaves of each plant in a treatment region was investigated on September 6 to evaluate maintenance effects of leaf color as compared with that in the untreated region.
Leaf color was evaluated by […] of leaf color indices of 1 (discolored at ¼ or less of the whole), 2 (discolored at ½ or less of the whole) and 3 (discolored at ¾ or more of the whole). From this, the mean leaf color index, and green color maintenance effects were computed by the following formula.
Green color maintenance effect=(leaf color index of untreated region)−(leaf color index of each treatment region))/(leaf color index of untreated region)×100

Structure (SMILES): CCCCCCCCCCCCCCCC(=O)OC[C@H](O)[C@H]1OC(=O)C(O)=C1O [ascorbyl palmitate]
- color of fruit: Number of green fruits ([1]; dosage 0.1 g/stock): 13
- color of fruit: Number of red fruits ([1]; dosage 0.1 g/stock): 19
- color of fruit: Percents of red fruits vs. no treatment region(%) ([1]; dosage 0.1 g/stock): 141%
- color of fruit: Percents of red fruits(%) ([1]; dosage 0.1 g/stock): 59%
- yield: Total number of fruits ([1]; dosage 0.1 g/stock): 32
- yield: Total weight of fruits ([1]; dosage 0.1 g/stock): 304 g
- yield: weight per fruit vs. no treatment region(%) ([1]; dosage 0.1 g/stock): 138%
- yield: weight per fruit(g/fruit) ([1]; dosage 0.1 g/stock): 9.5 g/fruit
- color of fruit: Number of green fruits ([1]; dosage 0.5 g/stock): 4
- color of fruit: Number of red fruits ([1]; dosage 0.5 g/stock): 29
- color of fruit: Percents of red fruits vs. no treatment region(%) ([1]; dosage 0.5 g/stock): 209%
- color of fruit: Percents of red fruits(%) ([1]; dosage 0.5 g/stock): 88%
- yield: Total number of fruits ([1]; dosage 0.5 g/stock): 33
- yield: Total weight of fruits ([1]; dosage 0.5 g/stock): 342 g
- yield: weight per fruit vs. no treatment region(%) ([1]; dosage 0.5 g/stock): 151%
- yield: weight per fruit(g/fruit) ([1]; dosage 0.5 g/stock): 10.4 g/fruit
- mean leaf color index ([2]; index 1 to 3): 1.5
- Green color maintenance effect(%) ([2]; vs untreated region): 25.0%

Source: patent US20150126368A1, “METHOD OF PROVIDING PLANT WITH STRESS RESISTANCE” (Nippon Soda Co., Ltd., priority 2012, published 2015)
